From patent publication US20250144067A1, “PERSONALIZED STARVATION THERAPY FOR CANCER” (Faeth Therapeutics, Inc., priority 2021, published 2025)
Counter-ions that a name gives are not always drawn.

Test system: NCI-H292 lung cancer cells
Assay: FDA drug screening, complete media vs cholesterol-free media with simvastatin (TABLE 2)
Assay type: cell-based, human
Details: NCI-H292 cells, FDA library drug in cholesterol-free media with simvastatin 0.04 μM

Structure (SMILES) | Cholesterol-free media + simvastatin (0.04 μM)
Cc1cc(C)c(NC(=O)CN(CC(=O)O)CC(=O)O)c(C)c1Br [Mebrofenin] | 1.2
Cc1cccc(C(C)c2cnc[nH]2)c1C (stereo not shown) [Medetomidine] | 1.094
CC(=O)O[C@]1(C(C)=O)CC[C@H]2[C@@H]3C=C(C)C4=CC(=O)CC[C@]4(C)[C@H]3CC[C@@]21C [Megestrol acetate] | 1.252

Same assay, conditions: NCI-H292 cells, FDA library drug in complete media

Structure (SMILES) | Complete Media
Cc1cc(C)c(NC(=O)CN(CC(=O)O)CC(=O)O)c(C)c1Br [Mebrofenin] | 0.8726
Cc1cccc(C(C)c2cnc[nH]2)c1C (stereo not shown) [Medetomidine] | 0.8138
CC(=O)O[C@]1(C(C)=O)CC[C@H]2[C@@H]3C=C(C)C4=CC(=O)CC[C@]4(C)[C@H]3CC[C@@]21C [Megestrol acetate] | 0.9647

Same assay, conditions: NCI-H292 cells, cholesterol-free media with simvastatin 0.04 μM; FDA drug library screen (TABLE 2)

Structure (SMILES) | Cholesterol-free media + simvastatin (0.04 μM)
O=C1[C@@H]2[C@H]3CC[C@H](C3)[C@@H]2C(=O)N1C[C@@H]1CCCC[C@H]1CN1CCN(c2nsc3ccccc23)CC1 [Lurasidone (Hydrochloride)] | 0.8431
CN1CCc2c(c3ccccc3n2Cc2ccccc2)C1 [Mebhydrolin (napadisylate)] | 0.9255
CN(C)CCOC(=O)COc1ccc(Cl)cc1 [Meclofenoxate (hydrochloride)] | 1.001
CNC[C@H](O)[C@@H](O)[C@H](O)[C@H](O)CO [Meglumine] | 1.358

Same assay, conditions: NCI-H292 cells, cholesterol-free media with simvastatin 0.04 μM; cell growth value in FDA drug screen

Structure (SMILES) | Cholesterol-free media + simvastatin (0.04 μM)
COC(=O)C1=C(C)NC(C)=C(C(=O)OCCN2CCN(C(c3ccccc3)c3ccccc3)CC2)C1c1cccc([N+](=O)[O-])c1 (stereo not shown) [Manidipine (dihydrochloride)] | 1.023
COC(=O)Nc1nc2ccc(C(=O)c3ccccc3)cc2[nH]1 [Mebendazole] | 0.4675
Cc1cccc(C(C)c2cnc[nH]2)c1C (stereo not shown) [Medetomidine (hydrochloride)] | 0.8752
Cc1cnc(NC(=O)C2=C(O)c3ccccc3S(=O)(=O)N2C)s1 [Meloxicam] | 1.111

Same assay, conditions: NCI-H292 cells, complete media; FDA drug library screen (TABLE 2)

Structure (SMILES) | Complete Media
O=C1[C@@H]2[C@H]3CC[C@H](C3)[C@@H]2C(=O)N1C[C@@H]1CCCC[C@H]1CN1CCN(c2nsc3ccccc23)CC1 [Lurasidone (Hydrochloride)] | 0.8046
CN1CCc2c(c3ccccc3n2Cc2ccccc2)C1 [Mebhydrolin (napadisylate)] | 0.929
CN(C)CCOC(=O)COc1ccc(Cl)cc1 [Meclofenoxate (hydrochloride)] | 0.9764
CNC[C@H](O)[C@@H](O)[C@H](O)[C@H](O)CO [Meglumine] | 1.305

Same assay, conditions: NCI-H292 cells, complete media; cell growth value in FDA drug screen

Structure (SMILES) | Complete Media
COC(=O)C1=C(C)NC(C)=C(C(=O)OCCN2CCN(C(c3ccccc3)c3ccccc3)CC2)C1c1cccc([N+](=O)[O-])c1 (stereo not shown) [Manidipine (dihydrochloride)] | 1.051
COC(=O)Nc1nc2ccc(C(=O)c3ccccc3)cc2[nH]1 [Mebendazole] | 0.5846
Cc1cccc(C(C)c2cnc[nH]2)c1C (stereo not shown) [Medetomidine (hydrochloride)] | 0.9447

Same assay, conditions: NCI-H292 cells, drug in cholesterol-free media with simvastatin 0.04 μM

Structure (SMILES) | Cholesterol-free media + simvastatin (0.04 μM)
CCCCCCO[C@@H](C)c1cccc(-c2csc(NC(=O)c3cc(Cl)c(/C=C(\C)C(=O)O)c(Cl)c3)n2)c1OC [Lusutrombopag] | 0.9436
C=CCc1ccc(O)c(-c2cc(CC=C)ccc2O)c1 [Magnolol] | 1.293
CC(=O)[C@H]1CC[C@H]2[C@@H]3C[C@H](C)C4=CC(=O)CC[C@]4(C)[C@H]3[C@@H](O)C[C@]12C [Medrysone] | 1.51

Same assay, conditions: NCI-H292 cells, drug in complete media

Structure (SMILES) | Complete Media
CCCCCCO[C@@H](C)c1cccc(-c2csc(NC(=O)c3cc(Cl)c(/C=C(\C)C(=O)O)c(Cl)c3)n2)c1OC [Lusutrombopag] | 0.7827
C=CCc1ccc(O)c(-c2cc(CC=C)ccc2O)c1 [Magnolol] | 1.087
CC(=O)[C@H]1CC[C@H]2[C@@H]3C[C@H](C)C4=CC(=O)CC[C@]4(C)[C@H]3[C@@H](O)C[C@]12C [Medrysone] | 1.254

Same assay, conditions: complete media minus cholesterol-free media + simvastatin (0.04 μM); >0 enhanced anti-cancer activity, about 0 neutral, <0 antagonist

Structure (SMILES) | Difference
O=C1[C@@H]2[C@H]3CC[C@H](C3)[C@@H]2C(=O)N1C[C@@H]1CCCC[C@H]1CN1CCN(c2nsc3ccccc23)CC1 [Lurasidone (Hydrochloride)] | −0.04
CN1CCc2c(c3ccccc3n2Cc2ccccc2)C1 [Mebhydrolin (napadisylate)] | 0.00
CNC[C@H](O)[C@@H](O)[C@H](O)[C@H](O)CO [Meglumine] | −0.05

Same assay, conditions: complete media minus cholesterol-free media + simvastatin (0.04 μM); […]

Structure (SMILES) | Difference
CN(C)CCOC(=O)COc1ccc(Cl)cc1 [Meclofenoxate (hydrochloride)] | −0.02

Same assay, conditions: complete media minus cholesterol-free media + simvastatin; >0 enhanced anti-cancer activity, about 0 neutral, <0 antagonist

Structure (SMILES) | Difference
COC(=O)C1=C(C)NC(C)=C(C(=O)OCCN2CCN(C(c3ccccc3)c3ccccc3)CC2)C1c1cccc([N+](=O)[O-])c1 (stereo not shown) [Manidipine (dihydrochloride)] | 0.03
COC(=O)Nc1nc2ccc(C(=O)c3ccccc3)cc2[nH]1 [Mebendazole] | 0.12
Cc1cccc(C(C)c2cnc[nH]2)c1C (stereo not shown) [Medetomidine (hydrochloride)] | 0.07
Cc1cnc(NC(=O)C2=C(O)c3ccccc3S(=O)(=O)N2C)s1 [Meloxicam] | 0.12

Same assay, conditions: complete media vs cholesterol-free media + simvastatin (0.04 μM); >0 enhanced anti-cancer activity, about 0 neutral, <0 antagonist

Structure (SMILES) | Difference
CCCCCCO[C@@H](C)c1cccc(-c2csc(NC(=O)c3cc(Cl)c(/C=C(\C)C(=O)O)c(Cl)c3)n2)c1OC [Lusutrombopag] | −0.16
Cc1cc(C)c(NC(=O)CN(CC(=O)O)CC(=O)O)c(C)c1Br [Mebrofenin] | −0.33
Cc1cccc(C(C)c2cnc[nH]2)c1C (stereo not shown) [Medetomidine] | −0.28
CC(=O)[C@H]1CC[C@H]2[C@@H]3C[C@H](C)C4=CC(=O)CC[C@]4(C)[C@H]3[C@@H](O)C[C@]12C [Medrysone] | −0.26
CC(=O)O[C@]1(C(C)=O)CC[C@H]2[C@@H]3C=C(C)C4=CC(=O)CC[C@]4(C)[C@H]3CC[C@@]21C [Megestrol acetate] | −0.29

Same assay, conditions: complete media vs cholesterol-free media + simvastatin (0.04 μM); […]

Structure (SMILES) | Difference
C=CCc1ccc(O)c(-c2cc(CC=C)ccc2O)c1 [Magnolol] | −0.21

Test system: NCI-H292 lung cancer cells
Assay: FDA drug screening, complete media vs cholesterol-free media without statin (TABLE 1)
Assay type: cell-based, human
Details: Complete minus Cholesterol-free; >0 enhanced anti-cancer activity, about 0 neutral, <0 antagonist

Structure (SMILES) | Difference
O=C1[C@@H]2[C@H]3CC[C@H](C3)[C@@H]2C(=O)N1C[C@@H]1CCCC[C@H]1CN1CCN(c2nsc3ccccc23)CC1 [Lurasidone (Hydrochloride)] | −0.27
CCCCCCO[C@@H](C)c1cccc(-c2csc(NC(=O)c3cc(Cl)c(/C=C(\C)C(=O)O)c(Cl)c3)n2)c1OC [Lusutrombopag] | −0.26
CC(=O)O[C@]1(C(C)=O)CC[C@H]2[C@@H]3C=C(C)C4=CC(=O)CC[C@]4(C)[C@H]3CC[C@@]21C [Megestrol acetate] | −0.26
CNC[C@H](O)[C@@H](O)[C@H](O)[C@H](O)CO [Meglumine] | −0.26

Same assay, conditions: Complete minus Cholesterol-free; […]

Structure (SMILES) | Difference
CN(C)CCOC(=O)COc1ccc(Cl)cc1 [Meclofenoxate (hydrochloride)] | −0.28

Same assay, conditions: Complete minus Cholesterol-free; greater than 0 enhanced anti-cancer activity, about 0 neutral, below 0 antagonist

Structure (SMILES) | Difference
COC(=O)C1=C(C)NC(C)=C(C(=O)OCCN2CCN(C(c3ccccc3)c3ccccc3)CC2)C1c1cccc([N+](=O)[O-])c1 (stereo not shown) [Manidipine (dihydrochloride)] | −0.08
Cc1cc(C)c(NC(=O)CN(CC(=O)O)CC(=O)O)c(C)c1Br [Mebrofenin] | −0.13
Cc1cccc(C(C)c2cnc[nH]2)c1C (stereo not shown) [Medetomidine] | −0.10

Same assay, conditions: NCI-H292 cells, FDA drug library screen, cholesterol-free media without statin

Structure (SMILES) | Cholesterol-free
COC(=O)C1=C(C)NC(C)=C(C(=O)OCCN2CCN(C(c3ccccc3)c3ccccc3)CC2)C1c1cccc([N+](=O)[O-])c1 (stereo not shown) [Manidipine (dihydrochloride)] | 0.814
Cc1cc(C)c(NC(=O)CN(CC(=O)O)CC(=O)O)c(C)c1Br [Mebrofenin] | 1.088
Cc1cccc(C(C)c2cnc[nH]2)c1C (stereo not shown) [Medetomidine] | 1.034

Same assay, conditions: NCI-H292 cells, FDA drug library screen, complete media

Structure (SMILES) | Complete
COC(=O)C1=C(C)NC(C)=C(C(=O)OCCN2CCN(C(c3ccccc3)c3ccccc3)CC2)C1c1cccc([N+](=O)[O-])c1 (stereo not shown) [Manidipine (dihydrochloride)] | 0.7357
Cc1cc(C)c(NC(=O)CN(CC(=O)O)CC(=O)O)c(C)c1Br [Mebrofenin] | 0.9614
Cc1cccc(C(C)c2cnc[nH]2)c1C (stereo not shown) [Medetomidine] | 0.9342

Same assay, conditions: NCI-H292 cells, cholesterol-free media without statin

Structure (SMILES) | Cholesterol-free
O=C1[C@@H]2[C@H]3CC[C@H](C3)[C@@H]2C(=O)N1C[C@@H]1CCCC[C@H]1CN1CCN(c2nsc3ccccc23)CC1 [Lurasidone (Hydrochloride)] | 1.115
CCCCCCO[C@@H](C)c1cccc(-c2csc(NC(=O)c3cc(Cl)c(/C=C(\C)C(=O)O)c(Cl)c3)n2)c1OC [Lusutrombopag] | 1.148
CN(C)CCOC(=O)COc1ccc(Cl)cc1 [Meclofenoxate (hydrochloride)] | 1.499
Cc1cccc(C(C)c2cnc[nH]2)c1C (stereo not shown) [Medetomidine (hydrochloride)] | 1.452
CC(=O)O[C@]1(C(C)=O)CC[C@H]2[C@@H]3C=C(C)C4=CC(=O)CC[C@]4(C)[C@H]3CC[C@@]21C [Megestrol acetate] | 1.189
CNC[C@H](O)[C@@H](O)[C@H](O)[C@H](O)CO [Meglumine] | 1.228

Same assay, conditions: NCI-H292 cells, cholesterol-free media without statin, FDA drug library screen

Structure (SMILES) | Cholesterol-free
C=CCc1ccc(O)c(-c2cc(CC=C)ccc2O)c1 [Magnolol] | 0.6495
COC(=O)Nc1nc2ccc(C(=O)c3ccccc3)cc2[nH]1 [Mebendazole] | 0.1458
CN1CCc2c(c3ccccc3n2Cc2ccccc2)C1 [Mebhydrolin (napadisylate)] | 1.008
CC(=O)[C@H]1CC[C@H]2[C@@H]3C[C@H](C)C4=CC(=O)CC[C@]4(C)[C@H]3[C@@H](O)C[C@]12C [Medrysone] | 0.895

Same assay, conditions: NCI-H292 cells, complete media

Structure (SMILES) | Complete
O=C1[C@@H]2[C@H]3CC[C@H](C3)[C@@H]2C(=O)N1C[C@@H]1CCCC[C@H]1CN1CCN(c2nsc3ccccc23)CC1 [Lurasidone (Hydrochloride)] | 0.8426
CCCCCCO[C@@H](C)c1cccc(-c2csc(NC(=O)c3cc(Cl)c(/C=C(\C)C(=O)O)c(Cl)c3)n2)c1OC [Lusutrombopag] | 0.8829
CN(C)CCOC(=O)COc1ccc(Cl)cc1 [Meclofenoxate (hydrochloride)] | 1.221
Cc1cccc(C(C)c2cnc[nH]2)c1C (stereo not shown) [Medetomidine (hydrochloride)] | 1.139
CC(=O)O[C@]1(C(C)=O)CC[C@H]2[C@@H]3C=C(C)C4=CC(=O)CC[C@]4(C)[C@H]3CC[C@@]21C [Megestrol acetate] | 0.9289
CNC[C@H](O)[C@@H](O)[C@H](O)[C@H](O)CO [Meglumine] | 0.9693
Cc1cnc(NC(=O)C2=C(O)c3ccccc3S(=O)(=O)N2C)s1 [Meloxicam] | 0.7862

Same assay, conditions: NCI-H292 cells, complete media, FDA drug library screen

Structure (SMILES) | Complete
C=CCc1ccc(O)c(-c2cc(CC=C)ccc2O)c1 [Magnolol] | 1.053
COC(=O)Nc1nc2ccc(C(=O)c3ccccc3)cc2[nH]1 [Mebendazole] | 0.3848
CN1CCc2c(c3ccccc3n2Cc2ccccc2)C1 [Mebhydrolin (napadisylate)] | 1.238
CC(=O)[C@H]1CC[C@H]2[C@@H]3C[C@H](C)C4=CC(=O)CC[C@]4(C)[C@H]3[C@@H](O)C[C@]12C [Medrysone] | 1.283

Same assay, conditions: complete vs cholesterol-free media; >0 enhanced anti-cancer activity, about 0 neutral, <0 antagonist

Structure (SMILES) | Difference
COC(=O)Nc1nc2ccc(C(=O)c3ccccc3)cc2[nH]1 [Mebendazole] | 0.24
CN1CCc2c(c3ccccc3n2Cc2ccccc2)C1 [Mebhydrolin (napadisylate)] | 0.23
CC(=O)[C@H]1CC[C@H]2[C@@H]3C[C@H](C)C4=CC(=O)CC[C@]4(C)[C@H]3[C@@H](O)C[C@]12C [Medrysone] | 0.39

Same assay, conditions: complete vs cholesterol-free media; […]

Structure (SMILES) | Difference
C=CCc1ccc(O)c(-c2cc(CC=C)ccc2O)c1 [Magnolol] | 0.40

Same assay, conditions: complete vs cholesterol-free media; greater than 0 enhanced anti-cancer activity, about 0 neutral, below 0 antagonists

Structure (SMILES) | Difference
Cc1cccc(C(C)c2cnc[nH]2)c1C (stereo not shown) [Medetomidine (hydrochloride)] | −0.31
Cc1cnc(NC(=O)C2=C(O)c3ccccc3S(=O)(=O)N2C)s1 [Meloxicam] | −0.39
